Structures are written as SMILES.

This note sets out measurements from the supplement of paper PMC4649846.

For test [1], the system named is MDA-MB-231. Kind of test: drug sensitivity score (DSS); higher = more sensitive; extreme values may be limits of the assay. Conditions: incubation time: 72 h. Summed up:
(§1)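 MDA-MB-231 cells transfected a day earlier with siRNA against BRCA1 or non-targeting control siRNA were added at 4000 cells per well to 384-well plates holding compounds at 5 concentrations. After 72 h at 37 °C and 5% CO2, viability was read by CellTiter-Blue fluorescence. IC50 and drug sensitivity score came from logistic dose–response fits in Dotmatics Studies. The score is curve area relative to the area between 10% threshold and 100% inhibition, normalised by log of top response.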

Test [2] relates to MDA-MB-231. Conditions: incubation time: 72 h. Summed up:
as §1

[3] abbreviates: siRNA: siControl (non-targeting).

As to `CN(Cc1cnc2nc(N)nc(N)c2n1)c1ccc(C(=O)N[C@@H](CCC(=O)O)C(=O)O)cc1` [Methotrexate], the values for the drug sensitivity score in the test with MDA-MB-231 [1] (siRNA: siBRCA1) and in the test with MDA-MB-231 [1] (setting [3]) were 0 and 9.3, respectively. Also, the entries for the “IC50 of cell viability” value in the test on MDA-MB-231 [2] (siRNA: siBRCA1) and in the test with MDA-MB-231 [2] (setting [3]) were more than 4170 nM and 4.32 nM, respectively.

For `COc1c2occc2cc2ccc(=O)oc12` [Methoxsalen], the drug sensitivity score in the test with MDA-MB-231 [1] (siRNA: siBRCA1) and in the test with MDA-MB-231 [1] (setting [3]) was 0 each time. Also, the “IC50 of cell viability” value in the test on MDA-MB-231 [2] (siRNA: siBRCA1) and with MDA-MB-231 [2] (setting [3]) was more than 4170 nM each time.

Turning to `C[C@H]1C[C@@H]2[C@H]([C@@H](O)C[C@@]3(C)[C@H]2CC[C@]3(O)C(=O)CO)[C@@]2(C)C=CC(=O)C=C12` [Methylprednisolone], the drug sensitivity score in the test with MDA-MB-231 [1] (siRNA: siBRCA1) and in the test with MDA-MB-231 [1] (setting [3]) was 0 throughout. Also, the “IC50 of cell viability” value with MDA-MB-231 [2] (siRNA: siBRCA1) and in the test with MDA-MB-231 [2] (setting [3]) was more than 4170 nM each time.

On to `CO[C@@]12[C@H](COC(N)=O)C3=C(C(=O)C(C)=C(N)C3=O)N1C[C@@H]1N[C@@H]12` [Mitomycin C], for which the drug sensitivity score in the test on MDA-MB-231 [1] (siRNA: siBRCA1) and in the test on MDA-MB-231 [1] (setting [3]) was 0 in each case. The “IC50 of cell viability” value in the test with MDA-MB-231 [2] (siRNA: siBRCA1) and in the test on MDA-MB-231 [2] (setting [3]) was more than 4170 nM in each case.

On to `Clc1ccc(C(c2ccccc2Cl)C(Cl)Cl)cc1` (stereo not drawn) [Mitotane], for which the drug sensitivity score amounted to 1.03 in the test on MDA-MB-231 [1] (siRNA: siBRCA1) and 0 in the test on MDA-MB-231 [1] (setting [3]). Moreover, the “IC50 of cell viability” value in the test with MDA-MB-231 [2] (siRNA: siBRCA1) and in the test on MDA-MB-231 [2] (setting [3]) was more than 4170 nM throughout.

`O=C1c2c(O)ccc(O)c2C(=O)c2c(NCCNCCO)ccc(NCCNCCO)c21` [Mitoxantrone]: the drug sensitivity score worked out at 19.5 in the test on MDA-MB-231 [1] (siRNA: siBRCA1) and 19.9 in the test with MDA-MB-231 [1] (setting [3]). Further, the “IC50 of cell viability” value with MDA-MB-231 [2] (siRNA: siBRCA1) was 143 nM; in the test on MDA-MB-231 [2] (setting [3]), 134 nM.

With `CC1(C)CNc2cc(NC(=O)c3cccnc3NCc3ccncc3)ccc21` [Motesanib], the drug sensitivity score in the test with MDA-MB-231 [1] (siRNA: siBRCA1) and in the test on MDA-MB-231 [1] (setting [3]) was 0 throughout. In addition, the “IC50 of cell viability” value in the test with MDA-MB-231 [2] (siRNA: siBRCA1) and in the test on MDA-MB-231 [2] (setting [3]) was more than 4170 nM in each case.

With `CCNC(=O)c1noc(-c2cc(C(C)C)c(O)cc2O)c1-c1ccc(CN2CCOCC2)cc1` [NVP-AUY922], the results for the drug sensitivity score in the test with MDA-MB-231 [1] (siRNA: siBRCA1) and in the test with MDA-MB-231 [1] (setting [3]) were 19.6 and 23, respectively. The entries for the “IC50 of cell viability” value with MDA-MB-231 [2] (siRNA: siBRCA1) and in the test on MDA-MB-231 [2] (setting [3]) were 46.8 nM and 26.6 nM, respectively.

`Cn1c(=O)n(-c2ccc(C(C)(C)C#N)cc2)c2c3cc(-c4cnc5ccccc5c4)ccc3ncc21` [NVP-BEZ235 (Dactolisib)]: the drug sensitivity score in the test on MDA-MB-231 [1] (siRNA: siBRCA1) stood at 16.9; in the test on MDA-MB-231 [1] (setting [3]) it was 16.6. Further, the entries for the “IC50 of cell viability” value in the test with MDA-MB-231 [2] (siRNA: siBRCA1) and in the test with MDA-MB-231 [2] (setting [3]) were 8.83 nM and 10.2 nM, respectively.

Turning to `Cc1c(C(=O)Nc2ccc(N3C[C@@H](C)O[C@@H](C)C3)nc2)cccc1-c1ccc(OC(F)(F)F)cc1` [NVP-LDE225], the drug sensitivity score in the test on MDA-MB-231 [1] (siRNA: siBRCA1) and in the test on MDA-MB-231 [1] (setting [3]) was 0 throughout. For the same compound, the “IC50 of cell viability” value in the test on MDA-MB-231 [2] (siRNA: siBRCA1) and in the test with MDA-MB-231 [2] (setting [3]) was more than 4170 nM in each case.

`CC1(C)CCC(c2ccc(Cl)cc2)=C(CN2CCN(c3ccc(C(=O)NS(=O)(=O)c4ccc(N[C@H](CCN5CCOCC5)CSc5ccccc5)c(S(=O)(=O)C(F)(F)F)c4)cc3)CC2)C1` [Navitoclax]: the drug sensitivity score turned out to be 11 with MDA-MB-231 [1] (siRNA: siBRCA1) and 10.3 in the test on MDA-MB-231 [1] (setting [3]). Besides, the “IC50 of cell viability” value in the test on MDA-MB-231 [2] (siRNA: siBRCA1) was determined as 835 nM; in the test on MDA-MB-231 [2] (setting [3]) it was 821 nM.

Regarding `COc1nc(N)nc2c1ncn2[C@@H]1O[C@H](CO)[C@@H](O)[C@@H]1O` [Nelarabine], the drug sensitivity score with MDA-MB-231 [1] (siRNA: siBRCA1) and in the test with MDA-MB-231 [1] (setting [3]) was 0 each time. Also, the “IC50 of cell viability” value in the test with MDA-MB-231 [2] (siRNA: siBRCA1) and with MDA-MB-231 [2] (setting [3]) was more than 4170 nM throughout.

Take `Cc1cn(-c2cc(NC(=O)c3ccc(C)c(Nc4nccc(-c5cccnc5)n4)c3)cc(C(F)(F)F)c2)cn1` [Nilotinib]: the drug sensitivity score in the test on MDA-MB-231 [1] (siRNA: siBRCA1) and in the test on MDA-MB-231 [1] (setting [3]) was 0 each time. Also, the “IC50 of cell viability” value in the test on MDA-MB-231 [2] (siRNA: siBRCA1) and in the test with MDA-MB-231 [2] (setting [3]) was more than 4170 nM in each case.

Take `CC1(C)NC(=O)N(c2ccc([N+](=O)[O-])c(C(F)(F)F)c2)C1=O` [Nilutamide]: the drug sensitivity score in the test with MDA-MB-231 [1] (siRNA: siBRCA1) and in the test on MDA-MB-231 [1] (setting [3]) was 0 throughout. Moreover, the “IC50 of cell viability” value with MDA-MB-231 [2] (siRNA: siBRCA1) and in the test on MDA-MB-231 [2] (setting [3]) was more than 4170 nM throughout.

On to `COc1cccc2cc(-c3nc([C@H]4CC[C@H](C(=O)O)CC4)n4ncnc(N)c34)[nH]c12` [OSI-027], for which the drug sensitivity score in the test on MDA-MB-231 [1] (siRNA: siBRCA1) stood at 7.16; in the test with MDA-MB-231 [1] (setting [3]), 7.26. The results for the “IC50 of cell viability” value in the test with MDA-MB-231 [2] (siRNA: siBRCA1) and in the test on MDA-MB-231 [2] (setting [3]) were 973 nM and 1080 nM, respectively.

As to `C[C@]1(O)C[C@@H](c2nc(-c3ccc4ccc(-c5ccccc5)nc4c3)c3c(N)nccn32)C1` [OSI-906], the drug sensitivity score in the test with MDA-MB-231 [1] (siRNA: siBRCA1) and in the test on MDA-MB-231 [1] (setting [3]) was 0 throughout. The “IC50 of cell viability” value in the test with MDA-MB-231 [2] (siRNA: siBRCA1) and in the test on MDA-MB-231 [2] (setting [3]) was more than 4170 nM each time.

Turning to `COC1=CC(c2cc3ccccc3[nH]2)=N/C1=C\c1[nH]c(C)cc1C` [Obatoclax], the drug sensitivity score with MDA-MB-231 [1] (siRNA: siBRCA1) and in the test on MDA-MB-231 [1] (setting [3]) was 15 throughout. Further, the “IC50 of cell viability” value is 399 nM in the test with MDA-MB-231 [2] (siRNA: siBRCA1) and 355 nM with MDA-MB-231 [2] (setting [3]).
